Molecules are shown by their SMILES.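 Results reflect a 48-hour exposure of cells in 96-well plates to compound at five concentrations. GI50: concentration for 50% inhibition of growth.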 Activity calls are given as the source filed them. Rule as the data show it: active = GI50 up to about 1.1 µM and inactive = higher. Where only a bound is given, the exact number is not on record here.

Some test systems named below: BT-549; T47D; DMS-114; DMS-273; HOP-18; KM-20L2; LXFL 529; XF498.
Common to all, as to assay: NCI-60 cell line screen, 48 h

Consider `CC(C)CCC[C@@H](C)[C@H]1CC[C@H]2[C@@H]3CC[C@H]4C[C@H](N)CC[C@]4(C)[C@H]3CC[C@]12C`, for which the values for the GI50 in the assay on BT-549 and in the assay with T47D were 23.1 µM (inactive) and 34.4 µM (inactive), respectively.
For `CCN(CC)CCNc1ccc([N+](=O)[O-])c2nc3ccc(OC)cc3c(N)c12` the same measures were 1.4 µM (inactive) and 1.26 µM (inactive).
`O=C(Nc1ccc(Nc2ccc3c(c2)C(=O)c2ccccc2C3=O)c2c1C(=O)c1ccccc1C2=O)c1ccccc1`: the values for the GI50 in the assay with BT-549 and with T47D were > 100 µM (inactive) and 42.1 µM (inactive), respectively.
Take `O=C(N/N=C/c1ccccc1O)c1cccc([N+](=O)[O-])c1`: the GI50 in the assay with DMS-114 was 3.65 µM (inactive); with DMS-273, 6.43 µM (inactive); in the assay on HOP-18, 28.5 µM (inactive); in the assay on KM-20L2 it was 8.49 µM (inactive); with LXFL 529, 40.8 µM (inactive); in the assay with XF498, 92.3 µM (inactive).
In the case of `Cc1cn(C2CC(SCCO)C(CO)O2)c(=O)[nH]c1=O` (centres undefined), the GI50 in the assay on BT-549 and in the assay on T47D was > 100 µM (inactive) throughout.
For `O=C(Nc1cccc(C(F)(F)F)c1)O/N=C(/Cl)CCl`, the GI50 in the assay on T47D is 53.5 µM (inactive).
Still for that read-out and setting: for `COC1O[C@@H]2CCN3C(=O)[C@@H](OC(=O)c4ccc([N+](=O)[O-])cc4)[C@H]1C23` (some centres undefined) the value was > 100 µM (inactive).
As for `COc1ccc(C[C@H]2COC(=O)[C@@H]2Cc2ccc(Br)cc2)cc1OC`, the GI50 in the assay on BT-549 was 17.5 µM (inactive); with T47D, 6.08 µM (inactive).
On to `COc1ccccc1N1C(=O)/C(=C\c2cccc(Oc3ccccc3)c2)S(=O)(=O)C1c1ccccc1` (centres undefined), for which the results for the GI50 in the assay with BT-549 and in the assay on T47D were 26.6 µM (inactive) and 22.3 µM (inactive), respectively.
For `C=C[C@H]1CN2CC[C@H]1C[C@@H]2[C@@H](O)c1ccnc2ccccc12` [CINCHONINE], the GI50 in the assay with BT-549 and in the assay on T47D was > 100 µM (inactive) each time.
Take `Cc1ccc(OCC2OC(n3cnc4c(Cl)nc(Nc5cc(Cl)cc(Cl)c5)nc43)CC2Oc2ccc(C)cc2)cc1` (centres undefined): the figures for the GI50 in the assay with BT-549 and in the assay on T47D were > 100 µM (inactive) and 48.9 µM (inactive), respectively.
Consider `OCCCc1cc(O)c2c(c1)C(CO)C(c1ccc(O)c(O)c1)O2` (centres undefined), for which the results for the GI50 with BT-549 and in the assay with T47D were > 100 µM (inactive) and 80.2 µM (inactive), respectively.
In the case of `CC1=C(C)C(=O)OC(C(C)(O)C2(O)CC3OC34C3CC(O)C56OC5C=CC(=O)C6(C)C3CCC42C)C1` (centres undefined), the GI50 was 0.914 µM (active) in the assay on BT-549 and 2.99 µM (inactive) with T47D.
`Cc1ccc2c(c1)C(C(=O)N[C@@H]1C(=O)N3[C@@H]1SC(C)(C)[C@@H]3C(=O)O)OCCC2` (some centres undefined): the GI50 with BT-549 and in the assay with T47D was > 100 µM (inactive) throughout.
Regarding `C/C=C(/C)C(=O)O[C@H](C[C@@H](C)[C@H]1CC(c2ccoc2)OC1=O)[C@@]1(C)C(=O)CCC2O[C@]21C` (some centres undefined), the GI50 with BT-549 and with T47D was > 100 µM (inactive) in each case.
On to `CCOC(=O)C(C(=O)OCC)=C1NC2(c3ccccc3Nc3ccc(C)cc32)C(C#N)S1` (centres undefined), for which the values for the GI50 with BT-549 and with T47D were 14 µM (inactive) and 4.39 µM (inactive), respectively.
Consider `COc1cc2c3c(c1Oc1nnnn1-c1ccccc1)-c1c(ccc4c1OCO4)C[C@H]3N(C)CC2`, for which the GI50 with T47D is 33.7 µM (inactive).
As to `CCOC(=O)c1sc2c(c1OC(=O)c1ccco1)c(=O)n(-c1ccccc1)c(=S)n2-c1ccccc1`, the GI50 in the assay with T47D was 65.6 µM (inactive).
Turning to `COc1cccc(C2c3cc4c(cc3OC(Nc3ccccc3)C2C)OCO4)c1O` (centres undefined), the GI50 in the assay with BT-549 was 10.6 µM (inactive); with T47D, 12.7 µM (inactive).
For `Cn1c(=O)c2ccccc2[n+]2c(-c3cccc([N+](=O)[O-])c3)csc12`, in the assay on T47D, the GI50 is > 100 µM (inactive).
In the case of `Cc1ccc(/N=C2\SC(=S)N(CCC[N+](C)(C)C)\C2=N/c2ccc(C)cc2)cc1`, the GI50 in the assay with BT-549 was 4.22 µM (inactive); in the assay with T47D it was 2.29 µM (inactive).
For `CC(C)CCCC(C)[C@H]1CC[C@H]2n3c(nnc3-c3ccccc3)CCC[C@]12C` (some centres undefined) the same measures were 19.8 µM (inactive) and 11.7 µM (inactive).
The matching figures for `Cc1nn2c(=O)c([N+](=O)[O-])c(/C=C/c3ccco3)nc2s1`: 28.7 µM (inactive) and 27.8 µM (inactive).
Consider `CN(C)CCNS(=O)(=O)N(C)C`, for which the GI50 with BT-549 and with T47D was > 100 µM (inactive) in each case.
As to `ClCc1nc2cc(Cl)ccc2o1`, the GI50 with BT-549 was 14.3 µM (inactive); in the assay on T47D, 2.44 µM (inactive).
For `CN(C)c1ccc(/C=C2\N=C(NNc3ccccc3)NC2=O)cc1` the same measures were 30 µM (inactive) and 11.7 µM (inactive).
As to `Nc1c(C(=O)NC23CC4CC(CC(C4)C2)C3)[n+]([O-])c2ccccc2[n+]1[O-]`, the GI50 in the assay with DMS-273, with HOP-18, in the assay with KM-20L2, in the assay with LXFL 529 and in the assay on XF498 was > 100 µM (inactive) each time.
With `Cc1c(O)c(OC2OC(CO)C(O)C(O)C2O)cc2c1C=C[C@@H]1[C@@]2(C)C(=O)C[C@]2(C)[C@@H]([C@@](C)(O)C(=O)CCC(C)(C)O)[C@H](O)C[C@@]12C` (some centres undefined), the figures for the GI50 with BT-549 and in the assay on T47D were 26.9 µM (inactive) and 18.7 µM (inactive), respectively.
As for `COC1OC(C(=O)O)C2OC(C)(C)OC12` (centres undefined), the GI50 in the assay on BT-549 is > 100 µM (inactive).
As to `CC(=O)OC1CC2C(C)(C)OC(=O)CC(OC(C)=O)[C@]2(C)C2CCC3(C)C(=CCC3c3ccoc3)[C@]12C` (some centres undefined), the GI50 in the assay on DMS-114 is 19.6 µM (inactive); in the assay on DMS-273, 13.7 µM (inactive); with KM-20L2 it was 28.1 µM (inactive); in the assay with LXFL 529 it was 13.9 µM (inactive); in the assay on XF498, 13.8 µM (inactive).
Turning to `COc1ccc(-c2c3c(n(C4OC(COC(C)=O)C(OC(C)=O)C(OC(C)=O)C4OC(C)=O)c(=S)c2C#N)CCC3)cc1` (centres undefined), in the assay on BT-549, the GI50 is 96.4 µM (inactive).
In the case of `COc1ccc(S(=O)(=O)N2C(=O)CCC2C(=O)NC(N)=O)cc1` (centres undefined), the GI50 in the assay on BT-549 and in the assay with T47D was > 100 µM (inactive) in each case.
With `CC1=Nc2c(C#N)ncn2N=C(C)C1`, the GI50 in the assay on BT-549 was > 100 µM (inactive).
Consider `O=C(O)CS(=O)(=O)C(c1ccccc1)c1ccccc1`, for which the GI50 with BT-549 and in the assay with T47D was > 100 µM (inactive) throughout.
`C=CCOC(=O)N1c2ccc(O[Si](C)(C)C(C)(C)C)cc2[C@@]23O[C@@]24[C@@H]1C#C/C=C\C#C[C@]3(O)C(OC)(OC)C[C@@H]4C`: the figures for the GI50 in the assay on BT-549 and in the assay with T47D were > 100 µM (inactive) and 25.3 µM (inactive), respectively.
For `Nc1nn2c(=O)c3ccccc3nc2s1`, the GI50 is 22.6 µM (inactive) in the assay on BT-549 and 87.3 µM (inactive) with T47D.
For `Cc1cn(CCCCCOC(=O)NC(CCCNC(N)=O)C(=O)O)c(=O)[nH]c1=O` (centres undefined) the same measures were > 100 µM (inactive) and > 100 µM (inactive).
In the case of `CCCN1C(=O)CNC(=O)c2[nH]cnc21`, the GI50 with DMS-114, in the assay with HOP-18, with KM-20L2, in the assay with LXFL 529 and with XF498 was > 100 µM (inactive) throughout.
Regarding `COC(=O)C1(c2cc3ccccc3n2S(=O)(=O)c2ccccc2)CC2C=CC1NC2` (centres undefined), the GI50 with BT-549 is 2.36 µM (inactive); with T47D, 3.24 µM (inactive).
For `COc1cc(CC2c3cc(OC)c(OC)cc3CCN2C)c(Oc2cc3c(cc2OC)-c2c(O)c(OC)cc4c2C(C3)N(C)CC4)cc1OC` (centres undefined) the same measures were 14.8 µM (inactive) and 22.1 µM (inactive).
On to `COC1CC(OC2C(C)OC(OC3C(C)OC(OC4C(C)OC(O[C@H]5CC[C@@]6(C)C(=CC[C@]7(O)[C@@H]6C[C@@H](OC(C)=O)[C@@]6(C)[C@]7(O)CC[C@@]6(O)C(C)=O)C5)CC4OC)CC3OC)CC2OC)OC(C)C1O` (some centres undefined), for which the GI50 in the assay on BT-549 and in the assay with T47D was > 25 µM (inactive) in each case.
As to `Cc1ccc(S(=O)(=O)NC(=O)C2(Br)S(=O)(=O)OCCOS2(=O)=O)cc1`, the GI50 in the assay on DMS-114, with DMS-273, with KM-20L2, in the assay with LXFL 529 and in the assay on XF498 was > 100 µM (inactive) in each case.
Take `COc1cc2ccc3c4cc(OC)c(OC(C)C)cc4c[n+](C)c3c2cc1OC`: the GI50 in the assay with DMS-114 is 9.64 µM (inactive); in the assay with HOP-18, 23.4 µM (inactive); in the assay with KM-20L2 it was > 100 µM (inactive); in the assay with LXFL 529, 14.2 µM (inactive).
With `O=C1CCCC2(c3ccccc3)Nc3ccccc3N12` (centres undefined), the GI50 in the assay with BT-549 and in the assay with T47D was > 100 µM (inactive) in each case.
`COc1cccc([C@@]2(O)c3c(ccc(O)c3OC)[C@H]2OC)c1OC`: the GI50 was 38.9 µM (inactive) in the assay with KM-20L2 and 19.6 µM (inactive) with LXFL 529.
On to `COc1ccnc2c1C(=O)c1nc3ccccc3c3ccnc-2c13`, for which the figures for the GI50 with BT-549 and in the assay on T47D were 0.397 µM (active) and 0.291 µM (active), respectively.
As for `CN1N=C(Nc2ccccc2)Sc2c1cnn(-c1ccccc1)c2=O`, the GI50 is 30.4 µM (inactive) in the assay on DMS-114; > 100 µM (inactive) in the assay with DMS-273; 20 µM (inactive) in the assay with HOP-18; > 100 µM (inactive) in the assay with KM-20L2; 79.8 µM (inactive) in the assay with LXFL 529.
With `CN1CNc2nc(N)n(C)c(=O)c2C1`, the GI50 in the assay with BT-549 is > 10 µM (inactive).
As to `Cc1cc2c(cc1-c1cc3c(cc1C)C(C(C)C)=C(O)C(=O)/C3=C\Nc1cccc3c(N)cccc13)/C(=C/Nc1cccc3c(N)cccc13)C(=O)C(O)=C2C(C)C`, the GI50 with BT-549 and in the assay on T47D was > 100 µM (inactive) each time.
As to `O=c1[nH]c(=S)c2cc3c(=S)[nH]c(=O)n(CCC(c4ccccc4)(c4ccccc4)c4ccccc4)c3nc2n1CCC(c1ccccc1)(c1ccccc1)c1ccccc1`, the GI50 in the assay with BT-549 and in the assay with T47D was > 100 µM (inactive) each time.
With `CCOC(=O)/C=C/CCC(C)(C)COC(C)=O`, the GI50 in the assay on T47D was > 10 µM (inactive).
Take `S=C(N/N=C\C(=N/NC(=S)N1CCCCC1)c1ccccc1)N1CCCCC1`: the results for the GI50 in the assay with BT-549 and in the assay with T47D were 1.88 µM (inactive) and 5.4 µM (inactive), respectively.
`CSc1nnc(SCc2nn3c(=O)cc(C)nc3s2)s1`: the GI50 in the assay with BT-549 and in the assay with T47D was > 100 µM (inactive) throughout.
`O=S(=O)(/N=S(/Nc1ccccc1)C(F)(F)Cl)c1ccccc1` (centres undefined): the GI50 in the assay on T47D was > 100 µM (inactive).
The same measure, in the same setting: as for `CCOC(=O)C1(N)CC1`, the figure is 56.8 µM (inactive).

(Values after ChEMBL document CHEMBL1201862, “PubChem BioAssay data set” (2004).)
